Data published in PubChem BioAssay AID2060605 (Molecular Pharmacology Branch, DTP, NCI, 2025).

Test system: 947758-054-R-J2-PDC spheroid growth, percent test/control
Experiment: Anticancer human tumor 947758-054-R-J2-PDC patient-derived colon adenocarcinoma cell line growth inhibition [CLK]
Details: spheroids with HUVEC and MSC; for IC50: curve of first compound; for viability, T/C: stronger effect = lower value
Procedure, shortened: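 Patient-derived tumor cells grown as complex spheroids with HUVEC endothelial cells and mesenchymal stem cells, treated with drug combinations. Concentrations descend in half-log steps from near clinical Cmax, or from 10 microM if Cmax unknown.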
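Note: spheroids exposed to compounds for one week before readout.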
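Throughout, for viability, T/C: 100% = DMSO vehicle control wells.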

## CC1(C)CCC(CN2CCN(c3ccc(C(=O)NS(=O)(=O)c4ccc(NCC5CCOCC5)c([N+](=O)[O-])c4)c(Oc4cnc5[nH]ccc5c4)c3)CC2)=C(c2ccc(Cl)cc2)C1 + CNC(=O)c1ccc(Nc2nc(OC3CCCC3)c3c(-c4ccc5nc(C)oc5c4)c[nH]c3n2)c(OC)c1
Second compound 0.0316 µM
  IC50: 2.89 µM
Second compound 0.1 µM
  IC50: 3.2 µM
Second compound 0.316 µM
  IC50: 2.44 µM
Second compound 1 µM
  IC50: 2.3 µM
Second compound 3.16 µM
  IC50: 0.751 µM
Second compound 10 µM
  IC50: 0.0352 µM
Second compound 0.0316 µM, first compound 0.0316 µM
  viability, T/C: 105%
Second compound 0.0316 µM, first compound 0.1 µM
  viability, T/C: 80.1%
Second compound 0.0316 µM, first compound 0.316 µM
  viability, T/C: 93.6%
Second compound 0.0316 µM, first compound 1 µM
  viability, T/C: 94.4%
Second compound 0.0316 µM, first compound 3.16 µM
  viability, T/C: 46.3%
Second compound 0.0316 µM, first compound 10 µM
  viability, T/C: 1.33%
Second compound 0.1 µM, first compound 0.0316 µM
  viability, T/C: 104%
Second compound 0.1 µM, first compound 0.1 µM
  viability, T/C: 113%
Second compound 0.1 µM, first compound 0.316 µM
  viability, T/C: 82.1%
Second compound 0.1 µM, first compound 1 µM
  viability, T/C: 94%
Second compound 0.1 µM, first compound 3.16 µM
  viability, T/C: 47.8%
Second compound 0.1 µM, first compound 10 µM
  viability, T/C: 0.8%
Second compound 0.316 µM, first compound 0.0316 µM
  viability, T/C: 105%
Second compound 0.316 µM, first compound 0.1 µM
  viability, T/C: 85.2%
Second compound 0.316 µM, first compound 0.316 µM
  viability, T/C: 70.7%
Second compound 0.316 µM, first compound 1 µM
  viability, T/C: 76.8%
Second compound 0.316 µM, first compound 3.16 µM
  viability, T/C: 46.9%
Second compound 0.316 µM, first compound 10 µM
  viability, T/C: 1.58%
Second compound 1 µM, first compound 0.0316 µM
  viability, T/C: 64.8%
Second compound 1 µM, first compound 0.1 µM
  viability, T/C: 56.7%
Second compound 1 µM, first compound 0.316 µM
  viability, T/C: 55.8%
Second compound 1 µM, first compound 1 µM
  viability, T/C: 68.5%
Second compound 1 µM, first compound 3.16 µM
  viability, T/C: 45.8%
Second compound 1 µM, first compound 10 µM
  viability, T/C: 0.6%
Second compound 3.16 µM, first compound 0.0316 µM
  viability, T/C: 59.1%
Second compound 3.16 µM, first compound 0.1 µM
  viability, T/C: 33.4%
Second compound 3.16 µM, first compound 0.316 µM
  viability, T/C: 63.3%
Second compound 3.16 µM, first compound 1 µM
  viability, T/C: 48.4%
Second compound 3.16 µM, first compound 3.16 µM
  viability, T/C: 26.5%
Second compound 3.16 µM, first compound 10 µM
  viability, T/C: 2.21%
Second compound 10 µM, first compound 0.0316 µM
  viability, T/C: 55%
Second compound 10 µM, first compound 0.1 µM
  viability, T/C: 42.5%
Second compound 10 µM, first compound 0.316 µM
  viability, T/C: 40.2%
Second compound 10 µM, first compound 1 µM
  viability, T/C: 42.3%
Second compound 10 µM, first compound 3.16 µM
  viability, T/C: 16.3%
Second compound 10 µM, first compound 10 µM
  viability, T/C: 2.68%

## NC(=O)C(=Cn1cnc(-c2cc(C(F)(F)F)cc(C(F)(F)F)c2)n1)c1cncnc1 + CNC(=O)c1ccc(Nc2nc(OC3CCCC3)c3c(-c4ccc5nc(C)oc5c4)c[nH]c3n2)c(OC)c1
Second compound 0.0316 µM
  IC50: < 0.00949 µM
Second compound 0.1 µM
  IC50: < 0.00949 µM
Second compound 0.316 µM
  IC50: 0.0112 µM
Second compound 1 µM
  IC50: < 0.00949 µM
Second compound 3.16 µM
  IC50: < 0.00949 µM
Second compound 10 µM
  IC50: < 0.00949 µM
Second compound 0.0316 µM, first compound 0.00949 µM
  viability, T/C: 46.7%
Second compound 0.0316 µM, first compound 0.03 µM
  viability, T/C: 37.3%
Second compound 0.0316 µM, first compound 0.0949 µM
  viability, T/C: 34.4%
Second compound 0.0316 µM, first compound 0.3 µM
  viability, T/C: 33.6%
Second compound 0.0316 µM, first compound 0.949 µM
  viability, T/C: 8.62%
Second compound 0.0316 µM, first compound 3 µM
  viability, T/C: 2.27%
Second compound 0.1 µM, first compound 0.00949 µM
  viability, T/C: 45.2%
Second compound 0.1 µM, first compound 0.03 µM
  viability, T/C: 32.4%
Second compound 0.1 µM, first compound 0.0949 µM
  viability, T/C: 25.6%
Second compound 0.1 µM, first compound 0.3 µM
  viability, T/C: 22.8%
Second compound 0.1 µM, first compound 0.949 µM
  viability, T/C: 4.68%
Second compound 0.1 µM, first compound 3 µM
  viability, T/C: 0.78%
Second compound 0.316 µM, first compound 0.00949 µM
  viability, T/C: 53.1%
Second compound 0.316 µM, first compound 0.03 µM
  viability, T/C: 32.4%
Second compound 0.316 µM, first compound 0.0949 µM
  viability, T/C: 15.1%
Second compound 0.316 µM, first compound 0.3 µM
  viability, T/C: 11.8%
Second compound 0.316 µM, first compound 0.949 µM
  viability, T/C: 3.26%
Second compound 0.316 µM, first compound 3 µM
  viability, T/C: 0.42%
Second compound 1 µM, first compound 0.00949 µM
  viability, T/C: 25.9%
Second compound 1 µM, first compound 0.03 µM
  viability, T/C: 20.6%
Second compound 1 µM, first compound 0.0949 µM
  viability, T/C: 12%
Second compound 1 µM, first compound 0.3 µM
  viability, T/C: 3.56%
Second compound 1 µM, first compound 0.949 µM
  viability, T/C: 1.32%
Second compound 1 µM, first compound 3 µM
  viability, T/C: 0.36%
Second compound 3.16 µM, first compound 0.00949 µM
  viability, T/C: 20.4%
Second compound 3.16 µM, first compound 0.03 µM
  viability, T/C: 16.3%
Second compound 3.16 µM, first compound 0.0949 µM
  viability, T/C: 10.9%
Second compound 3.16 µM, first compound 0.3 µM
  viability, T/C: 1.11%
Second compound 3.16 µM, first compound 0.949 µM
  viability, T/C: 0.26%
Second compound 3.16 µM, first compound 3 µM
  viability, T/C: 0.36%
Second compound 10 µM, first compound 0.00949 µM
  viability, T/C: 15.3%
Second compound 10 µM, first compound 0.03 µM
  viability, T/C: 13.7%
Second compound 10 µM, first compound 0.0949 µM
  viability, T/C: 5.14%
Second compound 10 µM, first compound 0.3 µM
  viability, T/C: 0.42%
Second compound 10 µM, first compound 0.949 µM
  viability, T/C: 0.28%
Second compound 10 µM, first compound 3 µM
  viability, T/C: 0.34%
